Reference: US8518917B2, “2-methylene-19-nor-vitamin D analogs and their uses” (Wisconsin Alumni Research Foundation, priority 2009, dated 2013)
Where two headings read alike, the source gives them in different places.

Columns and labels:
vitamin D-deficient rats [1] = test: Bone calcium mobilization (serum calcium); type: in vivo, rat
Experimental: (§1) Male, weanling Sprague-Dawley rats were placed on Diet 11 (Suda et al, J. Nutr. 100:1049, 1970) (0.47% Ca)+vitamins AEK for one week followed by Diet 11 (0.02% Ca)+vitamins AEK for 3 weeks. The rats were then switched to the same diet containing 0.47% Ca for one week followed by two weeks on the same diet containing 0.02% Ca. Dose administration began during the last week on 0.02% calcium diet. Four consecutive ip doses were given approximately 24 hours apart. Twenty-four hours after the last dose, blood was collected from the severed neck and the concentration of serum calcium determined by atomic absorption spectrometry as a measure of bone calcium mobilization. The first 10 cm of the intestine was also collected for intestinal calcium transport analysis using the everted gut sac method.

[2] = test system: Human promyelocytic leukemia (HL60) cells; test: HL-60 cell differentiation (nitro blue tetrazolium reduction); type: cell-based; conditions: four days treatment, read-out: EC50, promotion of HL60 differentiation
Experimental: The study drugs were dissolved in ethanol and the concentrations determined using UV spectrophotometry. Serial dilutions were prepared so that a range of drug concentrations could be tested without changing the final concentration of ethanol (≦0.2%) present in the cell cultures.
Human promyelocytic leukemia (HL60) cells were grown in RPMI-1640 medium containing 10% fetal bovine serum. The cells were incubated at 37° C. in the presence of 5% CO2.
HL60 cells were plated at 1.2×10^5 cells/ml. Eighteen hours after plating, cells in duplicate were treated with drug. Four days later, the cells were harvested and a nitro blue tetrazolium reduction assay was performed (Collins et al., 1979; J. Exp. Med. 149:969-974). The percentage of differentiated cells was determined by counting a total of 200 cells and recording the number that contained intracellular black-blue formazan deposits. Verification of differentiation to monocytic cells was determined by measuring phagocytic activity (data not shown).

[3] = test system: 24-hydroxylase (24Ohase) gene promoter; test: In vitro transcription assay, luciferase reporter in ROS 17/2.8 (bone) cells; type: cell-based; conditions: FIG. 3; for EC50: ROS 17/2.8 cells, sixteen hours after dosing, read-out: EC50, transcriptional activity in bone cells (24-hydroxylase gene)
Experimental: Transcription activity was measured in ROS 17/2.8 (bone) cells that were stably transfected with a 24-hydroxylase (24Ohase) gene promoter upstream of a luciferase reporter gene (Arbour et al., 1998). Cells were given a range of doses. Sixteen hours after dosing the cells were harvested and luciferase activities were measured using a luminometer. RLU=relative luciferase units.

[4] = biological target: T1, full-length recombinant rat vitamin D receptor (Rattus norvegicus, UniProt P13053); test: Vitamin D receptor competitive binding with [3H]-1,25(OH)2D3; conditions: read-out: Ki, competition with [3H]-1,25(OH)2D3 for binding to vitamin D receptor
T1 construct: Full-length recombinant rat receptor was expressed in E. coli; histidine tag (C); made in house; host or cells: E. coli BL21 (DE3) Codon Plus RIL
T1 sequence (P13053 1-423): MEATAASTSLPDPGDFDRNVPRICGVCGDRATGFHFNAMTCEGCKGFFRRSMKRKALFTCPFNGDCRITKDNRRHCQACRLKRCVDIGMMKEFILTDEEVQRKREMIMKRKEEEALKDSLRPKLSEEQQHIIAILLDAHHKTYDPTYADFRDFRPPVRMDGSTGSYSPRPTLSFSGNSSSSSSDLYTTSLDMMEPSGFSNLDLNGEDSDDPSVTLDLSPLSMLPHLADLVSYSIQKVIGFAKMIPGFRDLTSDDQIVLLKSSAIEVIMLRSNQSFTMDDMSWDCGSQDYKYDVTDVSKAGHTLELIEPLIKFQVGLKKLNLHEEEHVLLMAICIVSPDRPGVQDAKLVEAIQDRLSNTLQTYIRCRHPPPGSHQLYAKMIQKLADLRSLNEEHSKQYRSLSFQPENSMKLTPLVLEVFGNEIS
Experimental: Full-length recombinant rat receptor was expressed in E. coli BL21 (DE3) Codon Plus RIL cells and purified to homogeneity using two different column chromatography systems. The first system was a nickel affinity resin that utilizes the C-terminal histidine tag on this protein. The protein that was eluted from this resin was further purified using ion exchange chromatography (S-Sepharose Fast Flow). Aliquots of the purified protein were quick frozen in liquid nitrogen and stored at −80° C. until use. For use in binding assays, the protein was diluted in TEDK50 (50 mM Tris, 1.5 mM EDTA, pH7.4, 5 mM DTT, 150 mM KCl) with 0.1% Chaps detergent. The receptor protein and ligand concentration was optimized such that no more than 20% of the added radiolabeled ligand was bound to the receptor.
The following day, 100 mcl of hydroxylapatite slurry (50%) was added to each tube and mixed at 10-minute intervals for 30 minutes. […] After the final wash, the pellets were transferred to scintillation vials containing 4 ml of Biosafe II scintillation cocktail, mixed and placed in a scintillation counter. Total binding was determined from the tubes containing only radiolabeled ligand.

vitamin D-deficient rats [5] = test: Intestinal calcium transport (everted gut sac method); type: in vivo, rat; conditions: rats on 0.02% Ca diet, four consecutive ip doses
Experimental: as §1

[6] = 780 pmol/day for 4 consecutive days, ip, rats on 0.02% Ca diet
[7] = four consecutive ip doses, rats on 0.02% Ca diet

SMILES	mobilization of bone calcium (serum calcium) (vitamin D-deficient rats [1]; 87 pmol, four consecutive ip doses, FIG. 8)	mobilization of bone calcium (serum calcium) (vitamin D-deficient rats [1]; [6])	EC50 ([2]; FIG. 2 experiment) [nM]	EC50 ([2]; FIG. 7 experiment) [nM]	EC50 [3] [nM]	dose until which little to no bone calcium mobilization activity is observed (vitamin D-deficient rats [1]; [7]) [pmol/rat]	Ki ([4]; FIG. 6 experiment (1D-MJ vs 1,25(OH)2D3)) [nM]	times less potent than 1,25(OH)2D3 in promoting intestinal calcium transport (vitamin D-deficient rats [5])	EC50 ([2]; Homo sapiens, HL-60, 96 h, FIG. 7 experiment) [nM]	Ki ([4]; FIG. 1 experiment (1-desoxy-2MD vs 1,25(OH)2D3)) [nM]	EC50 ([2]; Homo sapiens, HL-60, 96 h, FIG. 2 experiment) [nM]	times less potent than 1,25(OH)2D3 in increasing transcription of the 24-hydroxylase gene ([3]; bone cells)
C=C1/C(=C\C=C2/CCC[C@]3(C)[C@@H]([C@H](C)CCCC(C)(C)O)CC[C@@H]23)C[C@@H](O)C[C@@H]1O [1α,25-dihydroxyvitamin D3, reference compound]	significant increases in serum calcium	significant increases in serum calcium	4	3	0.2	–	–	–	–	–	–	–
C=C1CC/C(=C\C=C2/CCC[C@]3(C)[C@@H]([C@H](C)CCCC(C)(C)O)CC[C@@H]23)C[C@H]1O [1D-MJ, (20R)-25-hydroxy-2-methylene-19-nor-vitamin D3]	–	little or no mobilization of bone calcium	–	–	–	≥ 7020	4	about 10 times	300	–	–	–
C=C1CC/C(=C\C=C2/CCC[C@]3(C)[C@@H]([C@@H](C)CCCC(C)(C)O)CC[C@@H]23)C[C@H]1O [1-desoxy-2MD, (20S)-25-hydroxy-2-methylene-19-nor-vitamin D3]	–	little or no mobilization of bone calcium	–	–	4	≥ 7020	–	about 20 times	–	0.1	10	about 20 times
